Results taken from US12557817B2, “Bioactive peptides having detrimental effects on pest slugs” (priority 2019, dated 2026).

Columns and labels:
[1] = tested on: two slug GPCRs (receptor A and B) expressed in the Sf9 insect cell line; test: Binding assay with peptides: calcium fluorescence (FLIPR Calcium 6) in Sf9 cells expressing slug GPCRs; assay type: cell-based, Deroceras reticulatum; conditions: for binding activity / activation of the receptors: alanine-substituted or N-terminally reduced peptides of SEQ ID NO: 3, FIG. 5; for EC50: Sf9 cells expressing receptor A or receptor B, receptor not given
Excerpt: The open reading frames (ORFs) of D. reticulatum GPCRs were inserted into a pIB/V5-His TOPO® TA expression vector (Thermo Fisher Scientific) to be expressed in Sf9 cells as described previously (Choi et al., Gen. Comp. Endocrinol., (2017) 246:354-62). To add a Kozak sequence (G/ANNATGG) in the translation initiation the ORFs of D. reticulatum GPCRs were amplified using specific primer sets. The sequences of two different ORFs of D. reticulatum GPCRs were confirmed after insertion into the expression vector.
Small synthetic peptides derived from the PRXamide family members identified from the gray garden slug and insects (Table 1), were tested to determine their binding activities to two slug GPCRs (receptor A and B) expressed in the Sf9 insect cell line. All peptide ligands of SEQ ID NOs: 1-16 and 19-28, as well as the “RY” dipeptide and “PRY” tripeptide (purity >95%) were synthesized from Peptide 2.0 (Chantily, VA, USA). Sf9 cells were cultured as described previously (Choi et al., supra). About 50,000 cells per well in a 96-well plate (Corning C3603) were incubated at 28° C. overnight. At 48 h, cells were rinsed with 100 μL of fresh medium without fetal bovine serum (FBS). Then, cells were incubated in 95 μL of 1×FLIPR Calcium 6 reagent (Molecular Devices, San Jose, CA, USA) containing 2.5 mM probenecid at room temperature in the dark for 1 h. The reagent-loaded cells were transferred to the Flexstation 3 multimode microplate reader (Molecular Devices) equipped with filters (excitation: 485 nm and emission: 520 nm) and an 8-channel pipettor. Fluorescence measurements from each well on the column were taken every 5 s for 4 min. After 30 s the peptide ligand (10 μL) was added with the pipettor and fluorescent intensity was measured for up to 3 min. Then, 5 μL of 1 μM ionomycin (Thermo Fisher Scientific) was added to the cells to obtain a maximum fluorescence reading. Baseline fluorescence was determined by averaging 5 time points from each well prior to treatment with ligand and the resulting response was expressed as a percent increase in fluorescence relative to baseline value. Cells were tested only once with a ligand then discarded. Data were analyzed using Microsoft Excel as described previously, and half-maximal effective concentration (EC50) values of ligands were determined using GraphPad Prism 6 (GraphPad Software, Inc., San Diego, CA).
The binding affinity to the two receptors of these two peptides, QPPLPRY-NH2 (SEQ ID NO: 3) and QPPVPRY-NH2 (SEQ ID NO: 4), was measured based on specific fluorescent intensity of the Sf9 cells expressing receptor A or receptor B in a 96-well plate. A strong fluorescent signal indicated strong binding activity between the peptide ligand and receptor.
To test the effect of varying individual amino acid residues and varying the length of the peptide of SEQ ID NO: 3, different amino acid residues were replaced with alanine (A), or the overall length of the peptide was reduced by sequentially removing amino acid residues from the N-terminal end of SEQ ID NO: 3 (Table 1, SEQ ID NO: 19, SEQ ID NO: 20, SEQ ID NO: 21, SEQ ID NO: 22, SEQ ID NO: 23, SEQ ID NO: 24, SEQ ID NO: 25, SEQ ID NO: 26, SEQ ID NO: 27, SEQ ID NO: 28). Altered peptides were tested and measured for binding activity with the receptors using the same methods as described above.

gray garden slugs [2] = test: Body weight loss and phenotype after peptide injection into slugs; assay type: in vivo, Deroceras reticulatum; conditions: for body weight loss relative to water control: 10 nmol injected, after 72 h
Method: The gray garden slugs utilized herein (Deroceras reticulatum) were collected in Corvallis, Oregon, USA, and maintained with carrot and lettuce in a controlled incubator (13° C., 90% RH, 14: 10=light:dark, dim light). To test their effects on slugs, peptides of SEQ ID NO: 3 and SEQ ID NO: 4 were dissolved in 5 μl of purified water (10 nmol) and injected into four gray garden slugs per each treatment. Over 80% of the slug body weight was lost after 72 h when either peptide was injected into the slugs, almost 2-fold higher than the water control (FIG. 3).

gray garden slugs [3] = test: Mortality after peptide injection into slugs; assay type: in vivo, Deroceras reticulatum; conditions: 100 nmol injected
Method: The gray garden slugs utilized herein (Deroceras reticulatum) were collected in Corvallis, Oregon, USA, and maintained with carrot and lettuce in a controlled incubator (13° C., 90% RH, 14: 10=light:dark, dim light). To test their effects on slugs, 100 nmol of each of the peptides (SEQ ID NO: 1, SEQ ID NO: 3, SEQ ID NO: 19, SEQ ID NO: 25 and SEQ ID NO: 26) was dissolved in 5 μL of purified water (100 nmol) and injected into 10 gray garden slugs per each treatment. Under dry conditions, after 24 h the slug mortalities observed were 40% with SEQ ID NO: 1, 70% with SEQ ID NO: 3, 90% with SEQ ID NO: 19, 70% with SEQ ID NO: 25, and 70% with SEQ ID NO: 26. […] Under wet conditions, the slug mortalities observed within 24 h were 40% with SEQ ID NO: 19, 40% with SEQ ID NO: 25, and 30% with SEQ ID NO: 26.

gray garden slugs [4] = test: Anti-feeding on peptide-treated lettuce leaf; assay type: in vivo, Deroceras reticulatum; conditions: lettuce treated with 200 nmol peptide
Method: The gray garden slugs utilized herein (Deroceras reticulatum) were collected in Corvallis, Oregon, USA, and maintained with carrot and lettuce in a controlled incubator (13° C., 90% RH, 14: 10=light:dark, dim light). To test for the effect of the peptides on feeding, slugs were fed a diet of lettuce leaf tissues treated with water alone or with 200 nmol of individual peptides (SEQ ID NO: 19, SEQ ID NO: 25, and SEQ ID NO: 26) dissolved in 10 μL water (FIG. 8). Ten gray garden slugs were used for each treatment and each treatment was replicated three times.

[5] = dry conditions (Petri dish), after 24 h
[6] = wet conditions (Petri dish with wet paper towel), within 24 h

Row | Substance | binding activity / activation of the receptors [1] | slug mortality (gray garden slugs [3]; [5]) [%] | slug mortality (gray garden slugs [3]; [6]) | also measured
1 | QPPAPRY [SEQ ID NO: 22] | maintained binding activity and activated the receptors | – | – | –
2 | PLPRY [SEQ ID NO: 28] | retained the ability to activate the receptors | – | – | –
3 | QPPLPRY [SEQ ID NO: 3, synthetic peptide, source D. reticulatum] | – | 70 | No mortalities were observed | body weight loss relative to water control (gray garden slugs [2]): ~2 fold; phenotypic effects after injection (gray garden slugs [2]; injected peptide, FIG. 4): excreted large volumes of milky mucus within 1 minute, exhibited body paralysis, extruding tentacles, weight loss and dehydration; EC50 [1]: 1.4 nM
4 | APPLPRY [SEQ ID NO: 19] | maintained binding activity and activated the receptors | 90 | 40% | anti-feeding (gray garden slugs [4]; within 1 h): 93.3%; anti-feeding (gray garden slugs [4]; within 2 h): 91.3%; anti-feeding (gray garden slugs [4]; within 6 h): 80.7%
5 | QPPVPRY [SEQ ID NO: 4, synthetic peptide, source D. reticulatum] | – | – | – | body weight loss relative to water control (gray garden slugs [2]): ~2 fold; EC50 [1]: 12.7 nM
6 | PMSMLRL [SEQ ID NO: 1, synthetic peptide, source D. reticulatum] | – | 40 | – | –
7 | LPRY [SEQ ID NO: 26] | retained the ability to activate the receptors | 70 | 30% | anti-feeding (gray garden slugs [4]; within 1 h): 73.3%; anti-feeding (gray garden slugs [4]; within 2 h): 48.0%; anti-feeding (gray garden slugs [4]; within 6 h): 23.3%
8 | QPPLPRA [SEQ ID NO: 25] | – | 70 | 40% | anti-feeding (gray garden slugs [4]; within 1 h): 66.7%; anti-feeding (gray garden slugs [4]; within 2 h): 46.7%; anti-feeding (gray garden slugs [4]; within 6 h): 16.7%
9 | QPALPRY [SEQ ID NO: 21] | maintained binding activity and activated the receptors | – | – | –
10 | QAPLPRY [SEQ ID NO: 20] | maintained binding activity and activated the receptors | – | – | –
11 | PPLPRY [SEQ ID NO: 27] | retained the ability to activate the receptors | – | – | –
